Where two headings read alike, the source gives them in different places.
Legend:
[1] = Antiulcerogenic action (protective action on the stomach), Shay rat: pylorus ligature plus oral acetylsalicylic acid; format: in vivo, rats (female); settings: rat, in vivo; LD50 i.v. mice / ED50 p.o. rats; read-out: TQ LD50/ED50 (therapeutic quotient)
Method: (§1) The effect of the compounds according to the invention on the formation, in rats, of gastric ulcers provoked by a pylorus ligature and 10 mg/kg of acetylsalicylic acid and on the inhibition of gastric secretion in rats is shown in the following table:
(§2) compared with the control group
(§3) TQ = therapeutic quotient LD50 /ED50
(§4) The antiulcerogenic action was tested in accordance with the method using the so-called Shay rat: Rats (female, 180 to 200 g, 4 animals per cage on a high grid) which had been fasted for 24 hours were subjected to ulcer provocation by pylorus ligature (under diethyl ether anaesthesia) and oral administration of 100 mg/10 ml/kg of acetylsalicyclic acid. The substances to be tested are administered orally (10 ml/kg) 1 hour before the pylorus ligature. The wound is closed by means of Michel clamps. 4 hours thereafter, the animals are killed under ether anaesthesia by atlas dislocation, and the stomach is removed. The stomach is opened longitudinally and fixed to a cork tile after the amount of gastric juice secreted (volume) has been determined, the number and size (=diameter) of ulcers present are determined with a stereomicroscope with 10-fold magnification. The product of the degree of severity (according to the following rating scale) and the number of ulcers serves as the individual ulcer index.
(§5) ulcer diameter 0.1-1.4 mm 1
(§6) The reduction in the average ulcer index of each treated group compared with that of the control group (=100%) serves as a measure of the antiulcerogenic effect. The ED50 designates the dose which reduces the average ulcer index by 50%.

[2] = system: gastric ulcers provoked by a pylorus ligature and acetylsalicylic acid; experiment: as above; format: in vivo, rats (female); settings: for ED50: Rattus norvegicus, po, read-out: Protective action on the stomach, ED50
Method: as §1, §2, §3, §4, §5, §6

gastric secretion = experiment: Inhibition of gastric secretion in rats; format: in vivo; settings: 4 hours after administration of the antiulcerogenic ED50
Method: as §1
^(+) % inhibition of the gastric secretion (in %) 4 hours after
administration of the antiulcerogenic ED50
as §4

[3] = Determination of toxicity (LD50, intravenous, mice); settings: mouse, in vivo; intravenous administration to mice; observation 7 days; dose at which 50% of the animals die
Method: LD50 = dose at which 50% of the animals die
The toxicity investigations are carried out on female NMRI mice (body weight: 23 to 30 g). The animals (5 animals per dose) receive feed and water ad libitum. Various doses of the substances are administered intravenously (injection time: 1 minute). The observation period is 7 days. The LD50 (the dose at which 50% of the animals die) is determined by means of linear regression.

Row | SMILES | therapeutic quotient (LD50/ED50) [1] | ED50 [2] | Gastric Secretion, % inhibition in rats (gastric secretion) | LD50 at 168 h [3] | ED50 ([2]; peroral administration to rats 1 hour before pylorus ligature, dose which reduces the ulcer index by 50% compared with the control group) | antiulcerogenic action, dose/action curve (in words) ([2]; Shay rat, up to 300 mg/kg for compound 1)
1 | Cc1cn(C)c2c1N(C(=O)CCN(C)C)c1ccccc1NC2=O [compound 10] | 26.7 | 4.5 mg/kg | 21% | 120 mg/kg | – | –
2 | Cc1cn(C)c2c1N(C(=O)CN1CCCCC1)c1ccccc1NC2=O [compound 3] | 21.1 | 4.5 mg/kg | 3% | 95 mg/kg | – | –
3 | CCN(CC)CC(=O)N1c2ccccc2NC(=O)c2c1c(C)cn2C [Serial No. 5, 4-Diethylaminoacetyl-1,3-dimethyl-1,4,9,10-tetrahydropyrrolo[3,2-b][1,5]benzodiazepin-10-one] | 17.5 | 6 mg/kg | 20% | 105 mg/kg | – | –
4 | CCCN(CCC)CC(=O)N1c2ccccc2NC(=O)c2c1c(C)cn2C [Serial No. 7, 1,3-Dimethyl-4-di-(n-propyl)aminoacetyl-1,4,9,10-tetrahydropyrrolo[3,2-b][1,5]benzodiazepin-10-one] | 16.9 | 6.5 mg/kg | 10% | 110 mg/kg | – | –
5 | CCNCC(=O)N1c2ccccc2NC(=O)c2c1c(C)cn2C [compound 8] | 25.5 | 5.5 mg/kg | 20% | 140 mg/kg | – | –
6 | Cc1cn(C)c2c1N(C(=O)CN1CCN(C)CC1)c1ccccc1NC2=O [compound 2] | 71.4 | 1.4 mg/kg | 25% | 100 mg/kg | – | –
7 | Cc1cn(C)c2c1N(C(=O)CN(C)C)c1ccccc1NC2=O [Serial No. 6, 1,3-Dimethyl-4-dimethylaminoacetyl-1,4,9,10-tetrahydropyrrolo[3,2-b][1,5]benzodiazepin-10-one] | – | – | 10% | – | 6.5 mg/kg | –
8 | CC1(C)[C@@H](OC(=O)CCC(=O)O)CC[C@]2(C)[C@H]3C(=O)C=C4[C@@H]5C[C@@](C)(C(=O)O)CC[C@]5(C)CC[C@@]4(C)[C@]3(C)CC[C@@H]12 [Serial No. 1, Carbenoxolone, reference compound] | – | 70 mg/kg | 7% | – | – | the dose/action curve is then very severely flattened so that no substantial increase in the antiulcerogenic action can be achieved even at 300 mg/kg
9 | Cc1cn(C)c2c1N(C(=O)CCN1CCCC1)c1ccccc1NC2=O [compound 9] | 11.7 | 6 mg/kg | 25% | 70 mg/kg | – | –
10 | Cc1cn(C)c2c1N(C(=O)CN1CCCC1)c1ccccc1NC2=O [compound 4] | 45.5 | 2.2 mg/kg | 0% | 100 mg/kg | – | –

Source: patent publication US4363816A, “Tricyclic pyrroles, their compositions and their use” (BYK Gulden Lomberg Chemische Fabrik Gesellschaft mit …, priority 1981, dated 1982)
